Results from publication PMC3098941 (ACS chemical biology, 2011).
pKd: −log10 of the molar value.

Key:
Assay type in all cases: binding
[1] = target: Akt1 (Homo sapiens, UniProt P31749); experiment: ANS fluorescence titration of Akt; settings: up to 100 μM ANS
[2] = target: Rock1 (Homo sapiens, UniProt Q13464); experiment: ANS fluorescence titration of Rock 1; settings: up to 100 μM ANS
[3] = target: T1, Aurora A (Homo sapiens, UniProt O14965); experiment: ANS fluorescence titration of Aurora A; settings: read-out: apparent Kd of ANS for Aurora A; Aurora A 5.8 μM, slit widths 10/10
T1 sequence (O14965 123-380): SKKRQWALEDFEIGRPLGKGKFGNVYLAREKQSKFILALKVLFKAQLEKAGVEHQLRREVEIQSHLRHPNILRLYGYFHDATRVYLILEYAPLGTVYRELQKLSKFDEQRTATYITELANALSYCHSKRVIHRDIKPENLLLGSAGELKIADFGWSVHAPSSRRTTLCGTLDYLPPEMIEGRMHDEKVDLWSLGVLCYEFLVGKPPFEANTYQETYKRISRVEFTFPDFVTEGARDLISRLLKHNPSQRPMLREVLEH

[4] = target: CDK2-ANS complex (Homo sapiens, UniProt P24941); experiment: Quenching of CDK2-ANS fluorescence by ligands; settings: 50 μM ANS; for effect on CDK2-ANS fluorescence yield: concentrations as high as 300 μM, 1.6 μM CDK2

Sequence of Akt1 (P31749 whole entry): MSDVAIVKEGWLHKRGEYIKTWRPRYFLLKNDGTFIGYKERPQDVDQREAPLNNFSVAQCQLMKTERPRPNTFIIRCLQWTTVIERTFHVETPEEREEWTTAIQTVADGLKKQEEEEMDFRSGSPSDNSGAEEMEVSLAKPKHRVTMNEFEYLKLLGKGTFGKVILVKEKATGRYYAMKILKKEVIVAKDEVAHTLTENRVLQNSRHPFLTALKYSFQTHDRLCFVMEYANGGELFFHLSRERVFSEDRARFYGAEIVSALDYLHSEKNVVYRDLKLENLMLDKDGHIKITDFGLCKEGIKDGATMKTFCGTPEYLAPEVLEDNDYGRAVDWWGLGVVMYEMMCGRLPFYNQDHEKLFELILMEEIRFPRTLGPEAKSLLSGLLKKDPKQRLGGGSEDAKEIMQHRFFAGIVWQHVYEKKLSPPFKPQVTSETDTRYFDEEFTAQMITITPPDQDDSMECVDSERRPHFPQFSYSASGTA
Sequence of Rock1 (Q13464 5-415): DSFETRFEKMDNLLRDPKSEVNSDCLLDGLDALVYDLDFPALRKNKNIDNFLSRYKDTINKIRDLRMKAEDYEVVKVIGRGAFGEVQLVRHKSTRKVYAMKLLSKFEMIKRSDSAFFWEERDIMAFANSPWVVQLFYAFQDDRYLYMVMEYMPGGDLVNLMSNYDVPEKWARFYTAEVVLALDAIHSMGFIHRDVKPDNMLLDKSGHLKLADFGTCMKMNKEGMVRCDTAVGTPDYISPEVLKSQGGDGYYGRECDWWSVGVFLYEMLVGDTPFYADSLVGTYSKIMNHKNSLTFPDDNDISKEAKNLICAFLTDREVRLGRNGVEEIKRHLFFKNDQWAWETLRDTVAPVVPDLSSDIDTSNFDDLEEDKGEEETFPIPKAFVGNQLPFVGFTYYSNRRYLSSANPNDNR

Row | effect on CDK2-ANS fluorescence yield [4] | effect on CDK2-ANS fluorescence ([4]; concentrations up to 100 μM) | Compound | saturation of ANS fluorescence with Akt [1] | saturation of ANS fluorescence with Rock 1 [2] | pKd [3]
1 |  |  | O=S(=O)(O)c1cccc2cccc(Nc3ccccc3)c12 [ANS, 8-anilino-1-naphthalene sulfonate] | saturation was not reached | saturation was not reached | 4.27
2 | only marginally affected | did not appear to affect | Nc1ncnc2c1ncn2[C@@H]1O[C@H](COP(=O)(O)OP(=O)(O)OP(=O)(O)O)[C@@H](O)[C@H]1O [ATP] |  |  | 
3 | only marginally affected |  | COc1ccc(O)c(-c2nc(N)nc(N)n2)c1 [JWS648] |  |  | 
